Changes are numbered by the printed parent chain. Where two headings read alike, the source gives them in different places.
How the values were obtained:
[1] = target: c-Src (Gallus gallus, UniProt P00523); test: In vitro kinase assay (32P peptide phosphorylation), WT Src; format: biochemical
[2] = target: T338G Src (Gallus gallus, UniProt P00523, T338G); test: In vitro kinase assay, T338G Src; format: biochemical
Procedure: (§1) Kinase reactions were initiated by the addition of […] cold ATP supplemented with 5 mCi γ^32P ATP and allowed to proceed at room temperature (RT). At 10 minutes […] of the reactions were spotted onto phosphocellulose sheets (P81, Whatman) and subsequently soaked in wash buffer (1.0% (v/v) phosphoric acid). The sheets were washed five times in buffer, dried, and transferred radioactivity was measured by phosphorimaging using a TyphoonTM scanner (Molecular Dynamics). Radioactive counts were quantified using ImageQuantTM software, and titration data were fit to a sigmoidal dose response to derive IC50 values using the Prism® software package. Dose responses were based on a 12 point inhibitor titration, using 1⁄3 dilutions starting from […]. Experiments were completed 2-4 times to derive mean values.

[3] = target: T1, Abl (Homo sapiens, UniProt P00519); test: In vitro kinase assay (32P peptide phosphorylation), WT Abl; format: biochemical
T1 sequence (P00519 242-493 limits assumed): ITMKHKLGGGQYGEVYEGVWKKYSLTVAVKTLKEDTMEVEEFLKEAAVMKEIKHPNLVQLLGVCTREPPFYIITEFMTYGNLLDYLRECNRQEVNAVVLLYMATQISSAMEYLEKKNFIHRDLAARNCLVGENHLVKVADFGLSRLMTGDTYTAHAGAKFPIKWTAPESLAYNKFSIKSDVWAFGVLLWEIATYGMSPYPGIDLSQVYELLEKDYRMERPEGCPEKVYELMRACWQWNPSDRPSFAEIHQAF

[4] = target: T2, T315A Abl (Homo sapiens, UniProt P00519, T315A); test: In vitro kinase assay, T315A Abl; format: biochemical
T2 sequence (P00519 242-493 T315A limits assumed): T1 sequence (P00519 242-493 limits assumed) with T74A
Procedure: as §1

[5] = target: T3, T315I Abl (Homo sapiens, UniProt P00519, T315I); test: In vitro kinase assay, T315I Abl; format: biochemical; conditions: Table 1b
T3 sequence (P00519 242-493 T315I limits assumed): T1 sequence (P00519 242-493 limits assumed) with T74I
Procedure: as §1

[6] = test system: Bcr-Abl transduced BaF3 cells; test: Cell proliferation (Resazurin) of Bcr-Abl transduced BaF3 cells; format: cell-based; conditions: two day treatment, without IL-3
From the text: The Bcr-Abl oncogene was transduced into BaF3 cells, rendering them IL-3-independent. “IL-3” refers to interleukin 3 which in human maps to gene locus 5q31.1, as known in the art. Recombinant IL-3 is available commercially. BaF3 is a hematopoietic cell line that is normally dependent on IL-3 for growth and proliferation. However, through expression of activated Bcr-Abl, the cells become transformed to an IL-3 independent state. In this assay, cell proliferation is directly correlated to the activity of Bcr-Abl. […] The parental BaF3 cells, but not the Bcr-Abl transduced cells, were grown in the presence of recombinant IL-3 during the time course of this experiment. After the two day treatment, cell proliferation was quantified using the dye Resazurin, which is converted into a fluorescently detectable form only when metabolized by living cells.

[7] = test system: parental BaF3 cells; test: Cell proliferation (Resazurin) of parental BaF3 cells; format: cell-based; conditions: grown with recombinant IL-3; especially at 1 mM inhibitor
From the text: The ability of AD57 to inhibit Bcr-Abl and T315I Bcr-Abl was examined in a cell based assay. The Bcr-Abl oncogene was transduced into BaF3 cells, rendering them IL-3-independent. “IL-3” refers to interleukin 3 which in human maps to gene locus 5q31.1, as known in the art. Recombinant IL-3 is available commercially. BaF3 is a hematopoietic cell line that is normally dependent on IL-3 for growth and proliferation. However, through expression of activated Bcr-Abl, the cells become transformed to an IL-3 independent state. In this assay, cell proliferation is directly correlated to the activity of Bcr-Abl. Wild-type Bcr-Abl, T315I Bcr-Abl, and parental BaF3 cells were treated with AD57 (Cmpd 5) at the indicated concentrations for two days. The parental BaF3 cells, but not the Bcr-Abl transduced cells, were grown in the presence of recombinant IL-3 during the time course of this experiment. After the two day treatment, cell proliferation was quantified using the dye Resazurin, which is converted into a fluorescently detectable form only when metabolized by living cells.
It is possible to inhibit the growth of BaF3 cells transduced with Bcr-Abl through non-specific inhibition mediated toxicity. Therefore, the effects of the inhibitors on the growth of parental BaF3 cells have also been measured.

[8] = Table 1a, read-out: IC50 WT Src
[9] = Table 1a, read-out: IC50 WT Abl
[10] = Table 1b, read-out: IC50 WT Src
[11] = Table 1b, read-out: IC50 WT Abl

Row | Compound | IC50 [1, 10] | IC50 ([2]; Table 1b) | IC50 [3, 11] | IC50 [5] | IC50 ([4]; Table 1b) | also measured
1 | CC(C)n1nc(Cc2cccc(NC(=O)Nc3cccc(C(F)(F)F)c3)c2)c2c(N)ncnc21 [AD36, 1-(3-((4-amino-1-isopropyl-1H-pyrazolo[3,4-d]pyrimidin-3-yl)methyl)phenyl)-3-(3-(trifluoromethyl)phenyl)urea] | – | – | – | – | – | IC50 [1, 8]: 1000 to 5000 nM; IC50 ([2]; Table 1a): < 1000 nM; IC50 [3, 9]: 1000 to 5000 nM; IC50 ([4]; Table 1a): < 1000 nM
2 | CC(C)n1nc(-c2ccc(NC(=O)Nc3cccc(C(F)(F)F)c3)cc2)c2c(N)ncnc21 [AD57, 1-(4-(4-amino-1-isopropyl-1H-pyrazolo[3,4-d]pyrimidin-3-yl)phenyl)-3-(3-(trifluoromethyl)phenyl)urea] | < 1000 nM | < 1000 nM | < 1000 nM | < 1000 nM | – | IC50 ([1]; unphosphorylated kinase domain, 100 mM ATP, read-out: IC50 for c-Src): 25 nM; IC50 ([3]; unphosphorylated kinase domain, 100 mM ATP, read-out: IC50 for Abl): 41 nM; inhibition of growth of Bcr-Abl BaF3 cells [6]: equally inhibits the growth; inhibition of growth of parental BaF3 cells [7]: but not parental BaF3 cells
3 | CC(C)n1nc(-c2ccc(NC(=O)Nc3ccccc3)cc2)c2c(N)ncnc21 [AD58] | < 1000 nM | – | < 1000 nM | < 1000 nM | – | –
4 | Cn1nc(-c2ccc(NC(=O)Nc3cccc(C(F)(F)F)c3)cc2)c2c(N)ncnc21 [AD59, 1-(4-(4-amino-1-methyl-1H-pyrazolo[3,4-d]pyrimidin-3-yl)phenyl)-3-(3-(trifluoromethyl)phenyl)urea] | – | – | < 1000 nM | < 1000 nM | – | –
5 | Nc1ncnc2c1c(-c1ccc(NC(=O)Nc3cccc(C(F)(F)F)c3)cc1)nn2C1CCCC1 [AD60, 1-(4-(4-amino-1-cyclopentyl-1H-pyrazolo[3,4-d]pyrimidin-3-yl)phenyl)-3-(3-(trifluoromethyl)phenyl)urea] | – | – | < 1000 nM | < 1000 nM | – | –
6 | CC(C)n1nc(-c2ccc(NC(=O)Nc3cccc(C(F)(F)F)c3)cc2)c2c(NC(=O)C3CC3)ncnc21 [AD61] | < 1000 nM | < 1000 nM | < 1000 nM | < 1000 nM | < 1000 nM | –
7 | CC(C)n1nc(-c2ccc(NC(=O)Nc3cccc(C(F)(F)F)c3)cc2)c2c(NC(=O)C3CCCC3)ncnc21 [AD62] | < 1000 nM | < 1000 nM | < 1000 nM | < 1000 nM | < 1000 nM | –
8 | CC(C)n1nc(-c2ccc(NC(=O)Nc3cccc(C(F)(F)F)c3)cc2)c2c(NC(=O)c3ccc(C(C)(C)C)cc3)ncnc21 [AD63] | > 5000 nM | 1000 to 5000 nM | > 5000 nM | < 1000 nM | > 5000 nM | –
9 | Nc1ncnc2c1c(Cc1cccc(NC(=O)Nc3cccc(C(F)(F)F)c3)c1)nn2C1CCCC1 [BB10, 1-(3-((4-amino-1-cyclopentyl-1H-pyrazolo[3,4-d]pyrimidin-3-yl)methyl)phenyl)-3-(3-(trifluoromethyl)phenyl)urea] | – | – | – | – | – | IC50 [1, 8]: < 1000 nM; selectivity towards c-Src over Abl ([1]; ratio of IC50 values c-Src vs Abl): approximately 5 fold; IC50 ([2]; Table 1a): < 1000 nM; IC50 [3, 9]: 1000 to 5000 nM; IC50 ([4]; Table 1a): < 1000 nM

Reference: patent US8697709B2, “Fused ring heteroaryl kinase inhibitors” (The Regents of the University of California, priority 2008, dated 2014)
